How the values were obtained:
Assay in all cases: Ba/F3 cell drug screening, Cell Titer Glo
Type in all cases: cell-based
EGFR N771dupN = biological target: T1, EGFR N771dupN (Homo sapiens, UniProt P00533, DUP771-771); details: Ba/F3 cells expressing EGFR N771dupN; 72 hours
T1 construct: expressed in transfected cells; host or cells: Ba/F3 (retroviral, pBabe-Puro based vector)
Description: (§1) Ba/F3 cell generation, drug screening, and IC50 approximations. Ba/F3 cells were obtained as a gift from Dr. Gordon Mills (MD Anderson Cancer Center), and maintained in RPMI (Sigma) containing 10% FBS, 1% penicillin/streptomycin, and 10 ng/ml recombinant mIL-3 (R&D Biosystems). To establish stable Ba/F3 cell lines, Ba/F3 cells were transduced with retroviruses containing mutant EGFR plasmids for 12-24 hours. Retroviruses were generated using Lipofectamine 2000 (Invitrogen) transfections of Phoenix 293T-ampho cells (Orbigen) with pBabe-Puro based vectors listed below in Table 6. Vectors were generated by GeneScript or Bioinnovatise using parental vectors from Addgene listed below in Table 6.
(§2) After 48-72 hours of transduction, 2 μg/ml puromycin (Invitrogen) was added to Ba/F3 cell lines in complete RPMI. To select for EGFR positive cell lines, cells were stained with PE-EGFR (Biolegend) and sorted by FACS. After sorting, EGFR positive cells were maintained in RPMI containing 10% FBS, 1% penicillin/streptomycin, and 1 ng/ml EGF to support cell viability. Drug screening was performed as previously described^41,42. Shortly, cells were plated in 384-well plates (Greiner Bio-One) at 2000-3000 cells per well in technical triplicate. Seven different concentrations of TKIs or DMSO vehicle were added to reach a final volume of 40 μL per well. After 72 hours, 11p L of Cell Titer Glo (Promega) was added to each well. Plates were incubated for a minimum of 10 minutes, and bioluminescence was determined using a FLUOstar OPTIMA plate reader (BMG LABTECH). Raw bioluminescence values were normalized to DMSO control treated cells, and values were plotted in GraphPad Prism. Non-linear regressions were used to fit the normalized data with a variable slope, and IC50 values were determined by GraphPad prism by interpolation of concentrations at 50% inhibition. Drug screens were performed in technical triplicate on each plate and either duplicate or triplicate biological replicates. Mutant to WT ratios (Mut/WT) for each drug were calculated by dividing the IC50 values of mutant cell lines by the average IC50 value of Ba/F3 cells expressing WT EGFR supplemented with 10 ng/ml EGF for each drug. Statistical differences between groups were determined by ANOVA as described in the figure legends.

EGFR S768dupSVD = biological target: T2, EGFR S768dupSVD (Homo sapiens, UniProt P00533, DUP768-770); details: Ba/F3 cells expressing EGFR S768dupSVD; 72 hours
T2 construct: expressed in transfected cells; host or cells: Ba/F3 (retroviral, pBabe-Puro based vector)
Description: as §1, §2

EGFR Ex19del T790M = biological target: T3, EGFR Ex19del T790M (Homo sapiens, UniProt P00533, DEL746-750/T790M); details: Ba/F3 cells expressing EGFR Ex19del T790M; 72 hours
T3 construct: expressed in transfected cells; host or cells: Ba/F3 (retroviral transduction, pBabe-Puro based vectors)
Description: as §1, §2

EGFR E709A = biological target: T4, EGFR E709A (Homo sapiens, UniProt P00533, E709A); details: Ba/F3 cells expressing EGFR E709A; 72 hours
T4 construct: expressed in transfected cells; host or cells: Ba/F3 (retroviral transduction, pBabe-Puro based vectors)
Description: as §1, §2

EGFR V774M = biological target: T5, EGFR V774M (Homo sapiens, UniProt P00533, V774M); details: Ba/F3 cells expressing EGFR V774M; 72 hours
T5 construct: host or cells: Ba/F3 (retroviral transduction, pBabe-Puro based vectors)
Description: as §1, §2

EGFR L747P = biological target: T6, EGFR L747P (Homo sapiens, UniProt P00533, L747P); details: Ba/F3 cells expressing EGFR L747P; 72 hours
T6 construct: expressed in transfected cells; host or cells: Ba/F3 (retroviral transduction, pBabe-Puro based vectors)
Description: as §1, §2

EGFR D761N = biological target: T7, EGFR D761N (Homo sapiens, UniProt P00533, D761N); details: Ba/F3 cells expressing EGFR D761N; 72 hours
T7 construct: expressed in transfected cells; host or cells: Ba/F3 (retroviral, pBabe-Puro based vector)
Description: as §1, §2

EGFR L858R/T790M = biological target: T8, EGFR L858R/T790M (Homo sapiens, UniProt P00533, L858R/T790M); details: Ba/F3 cells expressing EGFR L858R/T790M; 72 hours
T8 construct: expressed in transfected cells; host or cells: Ba/F3 (retroviral transduction, pBabe-Puro based vectors)
Description: as §1, §2

EGFR T725M = biological target: T9, EGFR T725M (Homo sapiens, UniProt P00533, T725M); details: Ba/F3 cells expressing EGFR T725M; 72 hours
T9 construct: expressed in transfected cells; host or cells: Ba/F3 (retroviral, pBabe-Puro based vector; created by GeneScript from EGFR WT)
Description: as §1, §2

EGFR I740dupIPVAK = details: Ba/F3 cells expressing EGFR I740dupIPVAK; 72 hours
Description: as §1, §2

EGFR E709K G719S = biological target: T10, EGFR E709K G719S (Homo sapiens, UniProt P00533, E709K/G719S); details: Ba/F3 cells expressing EGFR E709K G719S; 72 hours
T10 construct: expressed in transfected cells; host or cells: Ba/F3 (retroviral transduction, pBabe-Puro based vectors)
Description: as §1, §2

EGFR G719S = biological target: T11, EGFR G719S (Homo sapiens, UniProt P00533, G719S); details: Ba/F3 cells expressing EGFR G719S; 72 hours
T11 construct: expressed in transfected cells; host or cells: Ba/F3 (retroviral transduction, pBabe-Puro based vectors)
Description: as §1, §2

EGFR T790M = biological target: T12, EGFR T790M (Homo sapiens, UniProt P00533, T790M); details: Ba/F3 cells expressing EGFR T790M; 72 hours
T12 construct: expressed in transfected cells; host or cells: Ba/F3 (retroviral transduction, pBabe-Puro based vectors)
Description: as §1, §2

EGFR Ex19del = biological target: T13, EGFR Ex19del (Homo sapiens, UniProt P00533, DEL746-750); details: Ba/F3 cells expressing EGFR Ex19del; 72 hours
T13 construct: expressed in transfected cells; host or cells: Ba/F3 (retroviral, pBabe-Puro based vector)
Description: as §1, §2

EGFR Ex19del G724S = biological target: T14, EGFR Ex19del G724S (Homo sapiens, UniProt P00533, DEL746-750/G724S); details: Ba/F3 cells expressing EGFR Ex19del G724S; 72 hours
T14 construct: expressed in transfected cells; host or cells: Ba/F3 (retroviral transduction, pBabe-Puro based vectors)
Description: as §1, §2

EGFR G719A/R776C = biological target: T15, EGFR G719A/R776C (Homo sapiens, UniProt P00533, G719A/R776C); details: Ba/F3 cells expressing EGFR G719A/R776C; 72 hours
T15 construct: expressed in transfected cells; host or cells: Ba/F3 (retroviral transduction, pBabe-Puro based vectors)
Description: as §1, §2

EGFR A763insLQEA = biological target: T16, EGFR A763insLQEA (Homo sapiens, UniProt P00533, INS763LQEA); details: Ba/F3 cells expressing EGFR A763insLQEA; 72 hours
T16 construct: expressed in transfected cells; host or cells: Ba/F3 (retroviral, pBabe-Puro based vector)
Description: as §1, §2

C=CC(=O)N1CCC(Oc2cc3c(Nc4ccc(Cl)c(Cl)c4F)ncnc3cc2OC)CC1 [Poziotinib]
Response of Cells Comprising Ex20ins EGFR Mutations to Poziotinib (EGFR N771dupN): 0.04003
Response of Cells Comprising Ex20ins EGFR Mutations to Poziotinib (EGFR S768dupSVD): 0.09327
Response of Cells Comprising T790M-like-S EGFR Mutations to Second-Generation TKIs (EGFR Ex19del T790M): 3.423
Response of Cells Comprising PACC EGFR Mutations to Second-Generation TKIs (EGFR E709A): 0.02334
Response of Cells Comprising PACC EGFR Mutations to Second-Generation TKIs (EGFR V774M): 0.01859
Response of Cells Comprising PACC EGFR Mutations to Second-Generation TKIs (EGFR L747P): 0.1338
Response of Cells Comprising Classical-Like EGFR Mutations to Second-Generation TKIs (EGFR D761N): 0.007859
Response of Cells Comprising T790M-like-S EGFR Mutations to Second-Generation TKIs (EGFR L858R/T790M): 2.414
Response of Cells Comprising Classical-Like EGFR Mutations to Second-Generation TKIs (EGFR T725M): 0.003297
Response of Cells Comprising PACC EGFR Mutations to Second-Generation TKIs (EGFR I740dupIPVAK): 0.02483
Response of Cells Comprising PACC EGFR Mutations to Second-Generation TKIs (EGFR E709K G719S): 0.01609
Response of Cells Comprising PACC EGFR Mutations to Second-Generation TKIs (EGFR G719S): 0.04616
Response of Cells Comprising T790M-like-S EGFR Mutations to Second-Generation TKIs (EGFR T790M): 4.671
Response of Cells Comprising Classical-Like EGFR Mutations to Second-Generation TKIs (EGFR Ex19del): 0.07456
Response of Cells Comprising PACC EGFR Mutations to Second-Generation TKIs (EGFR Ex19del G724S): 0.4952
Response of Cells Comprising PACC EGFR Mutations to Second-Generation TKIs (EGFR G719A/R776C): 0.01624
Response of Cells Comprising Classical-Like EGFR Mutations to Second-Generation TKIs (EGFR A763insLQEA): 0.01607

Reference: US20240108623A1, “METHODS OF TREATING CANCER WITH POZIOTINIB” (BOARD OF REGENTS, THE UNIVERSITY OF TEXAS SYSTEM, priority 2021, published 2024)
